Experimental data from patent US4780560A, “Nitrate derivatives and vasodilators containing the same” (priority 1986, dated 1988).

Assays:
Coronary artery = assay: Vasodilating activity: increase in coronary blood flow in anesthetized dogs; format: in vivo, Hybrid adult dogs; conditions: i.v., n = 3 anesthetized dogs, vs. prior to administration
Procedure: (§1) A suspension of the compounds produced in the above examples in 0.5% HCO 60 solution was administered through the lateroradial dermal vein. […] As a control drug was employed Cinnepazied (1-[(1-pyrrolidinylcarbonyl)methyl]-4-(3,4,5-trimethyoxycinnamoyl)piperazine).

Vertebral artery = assay: Vasodilating activity: increase in vertebral blood flow in anesthetized dogs; format: in vivo, Hybrid adult dogs; conditions: i.v., n = 3 anesthetized dogs, vs. prior to administration
Procedure: as §1

Row | SMILES | Increase in blood flow (Δ% ± SE), Coronary artery (Coronary artery; 0.3 mg/kg) | Increase in blood flow (Δ% ± SE), Coronary artery (Coronary artery; 1.0 mg/kg) | Increase in blood flow (Δ% ± SE), Vertebral artery (Vertebral artery; 0.3 mg/kg) | Increase in blood flow (Δ% ± SE), Vertebral artery (Vertebral artery; 1.0 mg/kg)
1 | COc1cc(/C=C/C=C/C(=O)NCCO[N+](=O)[O-])cc(OC)c1OC [Example 1, N-(β-hydroxyethyl)-5-(3,4,5-trimethoxyphenyl)-2,4-pentadienoic acid amide nitrate] | 3.6 ± 0.2 Δ% | 28.6 ± 1.9 Δ% | 50.0 ± 2.4 Δ% | 83.3 ± 7.5 Δ%
2 | COc1cc(/C=C/C(=O)NCCO[N+](=O)[O-])cc(OC)c1OC [Example 2, N-(β-hydroxyethyl)-3,4,5-trimethoxycinnamic acid amide nitrate] | 3.8 ± 0.5 Δ% | 22.9 ± 1.5 Δ% | 35.0 ± 1.7 Δ% | 58.3 ± 5.3 Δ%
3 | COc1cc(C=CC(=O)N2CCN(CC(=O)N3CCCC3)CC2)cc(OC)c1OC [Cinnepazid, 1-[(1-pyrrolidinylcarbonyl)methyl]-4-(3,4,5-trimethyoxycinnamoyl)piperazine, reference compound] | 2.1 ± 0.8 Δ% | 10.0 ± 0.5 Δ% | 1.5 ± 0.4 Δ% | 5.6 ± 0.2 Δ%
